These results are taken from ChEMBL document CHEMBL4390652, “Design, biological evaluation and X-ray crystallography of nanomolar multifunctional ligands targeting simultaneously acetylcholinesterase and glycogen synthase kinase-3” (Eur J Med Chem, 2019).

Assay [1] concerns the target G protein-coupled receptor kinase 3 (Homo sapiens) (UniProt P35626). The experiment in a line: Binding affinity to wild-type human full length GRK3 (M1 to L688 residues) expressed in mammalian expression system assessed as residual binding level at 10 uM by Kinomescan method relative to control.
Assay [2] concerns the target Mitogen-activated protein kinase 11 (Homo sapiens) (UniProt Q15759). As to the kind of experiment: Binding affinity to wild-type human full length p38-beta (M1 to Q364 residues) expressed in bacterial expression system assessed as residual binding level at 10 uM by Kinomescan method relative to control.
In assay [3] the target is Cyclin-dependent kinase 2 homolog (Plasmodium falciparum (isolate 3D7)) (UniProt P61075). The experiment in a line: Binding affinity to wild-type Plasmodium falciparum full length PK5 (M1 to N288 residues) expressed in mammalian expression system assessed as residual binding level at 10 uM by Kinomescan method relative to control.
Assay [4] concerns the target Hepatocyte growth factor receptor (Homo sapiens) (UniProt P08581). As to the kind of experiment: Binding affinity to wild-type human partial length MET (D1010 to S1367 residues) expressed in bacterial expression system assessed as residual binding level at 10 uM by Kinomescan method relative to control.
The target in assay [5] is Tyrosine-protein kinase Srms (Homo sapiens) (UniProt Q9H3Y6). The experiment in a line: Binding affinity to wild-type human partial length SRMS (L208 to P488 residues) expressed in mammalian expression system assessed as residual binding level at 10 uM by Kinomescan method relative to control.
In assay [6] the target is Ribosomal protein S6 kinase beta-1 (Homo sapiens) (UniProt P23443). As to the kind of experiment: Binding affinity to wild-type human partial length S6K1 (M1 to S421 residues) expressed in mammalian expression system assessed as residual binding level at 10 uM by Kinomescan method relative to control.
Assay [7] has as its target Serine/threonine-protein kinase SIK1 (Homo sapiens) (UniProt P57059). As to the kind of experiment: Binding affinity to wild-type human partial length SIK (M1 to Y304 residues) expressed in bacterial expression system assessed as residual binding level at 10 uM by Kinomescan method relative to control.
Assay [8] concerns the target Serine/threonine-protein kinase 32C (Homo sapiens) (UniProt Q86UX6). As to the kind of experiment: Binding affinity to wild-type human partial length YANK3 (M68 to G486 residues) expressed in bacterial expression system assessed as residual binding level at 10 uM by Kinomescan method relative to control.
The target of assay [9] is Leucine-rich repeat serine/threonine-protein kinase 2 (Homo sapiens) (UniProt Q5S007). The experiment in a line: Binding affinity to wild-type human partial length LRRK2 (H970 to E2527 residues) expressed in mammalian expression system assessed as residual binding level at 10 uM by Kinomescan method relative to control.
The target of assay [10] is Mitogen-activated protein kinase kinase kinase 20 (Homo sapiens) (UniProt Q9NYL2). The experiment in a line: Binding affinity to wild-type human partial length ZAK (M1 to L331 residues) expressed in bacterial expression system assessed as residual binding level at 10 uM by Kinomescan method relative to control.
Assay [11] addresses Serine/threonine-protein kinase TAO3 (Homo sapiens) (UniProt Q9H2K8). The experiment in a line: Binding affinity to wild-type human partial length TAOK3 (M1 to T316 residues) expressed in mammalian expression system assessed as residual binding level at 10 uM by Kinomescan method relative to control.
The target in assay [12] is Phosphatidylinositol 4,5-bisphosphate 3-kinase catalytic subunit gamma isoform (Homo sapiens) (UniProt P48736). The experiment in a line: Binding affinity to wild-type human partial length PIK3CG (S144 to A1102 residues) expressed in mammalian expression system assessed as residual binding level at 10 uM by Kinomescan method relative to control.
For assay [13], the target named is STE20-like serine/threonine-protein kinase (Homo sapiens) (UniProt Q9H2G2). The experiment in a line: Binding affinity to wild-type human partial length SLK (S14 to A307 residues) expressed in bacterial expression system assessed as residual binding level at 10 uM by Kinomescan method relative to control.
Assay [14] has as its target Mitogen-activated protein kinase kinase kinase 1 (Homo sapiens) (UniProt Q13233). The experiment in a line: Binding affinity to wild-type human partial length MAP3K1 (L1202 to W1512 residues) expressed in mammalian expression system assessed as residual binding level at 10 uM by Kinomescan method relative to control.
Assay [15] addresses Calcium/calmodulin-dependent protein kinase type 1B (Homo sapiens) (UniProt Q6P2M8). As to the kind of experiment: Binding affinity to wild-type human partial length CAMK1B (W9 to A311 residues) expressed in mammalian expression system assessed as residual binding level at 10 uM by Kinomescan method relative to control.
In assay [16] the target is Mitogen-activated protein kinase 7 (Homo sapiens) (UniProt Q13164). As to the kind of experiment: Binding affinity to wild-type human partial length ERK5 (M1 to A409 residues) expressed in bacterial expression system assessed as residual binding level at 10 uM by Kinomescan method relative to control.
Assay [17] has as its target Mitogen-activated protein kinase kinase kinase 6 (Homo sapiens) (UniProt O95382). As to the kind of experiment: Binding affinity to wild-type human partial length ASK2 (M278 to R972 residues) expressed in mammalian expression system assessed as residual binding level at 10 uM by Kinomescan method relative to control.
Assay [18] deals with Insulin receptor (Homo sapiens) (UniProt P06213). The experiment in a line: Binding affinity to wild-type human partial length INSR (P997 to E1318 residues) expressed in mammalian expression system assessed as residual binding level at 10 uM by Kinomescan method relative to control.
Assay [19] addresses Serine/threonine-protein kinase TAO1 (Homo sapiens) (UniProt Q7L7X3). As to the kind of experiment: Binding affinity to wild-type human partial length TAOK1 (M1 to A320 residues) expressed in mammalian expression system assessed as residual binding level at 10 uM by Kinomescan method relative to control.
Assay [20] concerns the target Casein kinase II subunit alpha' (Homo sapiens) (UniProt P19784). As to the kind of experiment: Binding affinity to wild-type human full length CSNK2A2 (M1 to R350 residues) expressed in mammalian expression system assessed as residual binding level at 10 uM by Kinomescan method relative to control.
Assay [21] addresses Phosphatidylinositol 4-phosphate 5-kinase type-1 gamma (Homo sapiens) (UniProt O60331). As to the kind of experiment: Binding affinity to wild-type human partial length PIP5K1C (M1 to T668 residues) expressed in mammalian expression system assessed as residual binding level at 10 uM by Kinomescan method relative to control.
The target of assay [22] is Serine/threonine-protein kinase Nek9 (Homo sapiens) (UniProt Q8TD19). As to the kind of experiment: Binding affinity to wild-type human partial length NEK9 (P32 to R328 residues) expressed in bacterial expression system assessed as residual binding level at 10 uM by Kinomescan method relative to control.
The target of assay [23] is Serine/threonine-protein kinase pim-2 (Homo sapiens) (UniProt Q9P1W9). The experiment in a line: Binding affinity to wild-type human partial length PIM2 (M1 to E291 residues) expressed in bacterial expression system assessed as residual binding level at 10 uM by Kinomescan method relative to control.
Assay [24] has as its target Tyrosine-protein kinase Fes/Fps (Homo sapiens) (UniProt P07332). As to the kind of experiment: Binding affinity to wild-type human partial length FES (I527 to R822 residues) expressed in bacterial expression system assessed as residual binding level at 10 uM by Kinomescan method relative to control.

On to `O=C(Nc1cc(-c2cn(CCNc3c4c(nc5ccccc35)CCCC4)nn2)ccn1)Nc1cccc2c1C1CCCCN1C2=O` (racemic), for which the Activity was determined as 100% in assay [1]; 74% in assay [2]; 100% in [3]; 57% in assay [4]; 82% in [5]; 10% in [6]. The Activity in assay [7] was 73%; in assay [8] it was 75%; in assay [9], 38%; in [10], 31%; in assay [11], 3.8%; in assay [12], 100%. For the same compound, the Activity was determined as 30% in [13]; 100% in assay [14]; 100% in assay [15]; 57% in [16]; 87% in [17]; 17% in [18]. The Activity in [19] is 2.6%; in assay [20], 5%; in assay [21], 100%; in [22], 62%; in assay [23], 16%; in assay [24], 92%.
